Measurements taken from patent US20250282819A1, “MITOCHONDRIA-[…] PEPTIDE THAT CAN BE […] DELIVERED AT NANOMOLAR CONCENTRATION, AND USE THEREOF” (CAMP THERAPEUTICS INC., priority 2021, published 2025).
Where a SMILES comes first, the peptide text is derived from it. [ ]: non-standard residue; d: D form. Cha = N[C@@H](CC1CCCCC1)C(=O)O

How the values were obtained:
[1] = test system: HeLa cells; assay: Relative cytotoxicity, number of cells normally attached; conditions: 100 nM, 3 hours
Protocol: The relative cytotoxicity of the dimeric bundle peptides according to the present disclosure was compared and analyzed. For this purpose, 1×10^5 HeLa cells were treated with 100 nM of each peptide for 3 hours, washed three times with PBS, and then resuspended in PBS. After 30 minutes, five random photographs of each sample were taken under a light microscope to measure the number of cells normally attached to the cell culture dish.

[2] = test system: HeLa cells; type: cell-based; conditions: for level of EC50 value (cell-penetrating ability): comparison of CMP3013, LR10, MPP1a, SS-31
Protocol: Cell-penetrating ability was evaluated using the fluorescently-labeled versions of the dimeric bundle peptides synthesized in Example 3, and measured as EC50 values according to the method described in Experimental Example 3.
1×10^5 HeLa cells were seeded into a 24-well plate. After 24 hours, the peptide was added to the cells and further incubation was performed for 3 hours. The incubated cells were harvested, washed with PBS, suspended in PBS, and then analyzed by fluorescence-activated cell sorting (FACS; BD Accuri, USA). The cells whose fluorescence intensity exceeds the maximum intensity of untreated cells were classified as fluorescence-positive cells.

[3] = SPR binding to inner membrane model on sensor chip
Protocol: The surface plasmon resonance (SPR) technique was used to determine binding ability of the peptide to liposome. Specifically, an L1 sensor chip was inserted into a Biacore™ T200 SPR system (Cytiva, USA) and then liposome was injected so that the liposome binds to the sensor chip. Subsequently, 1 μM of NBD-CMP3013m peptide was injected to check the signal intensity increased by the binding of liposome and CMP3013.
Two types of model systems mimicking the inner mitochondrial membrane were constructed using POPC and POPE according to the method described in Experimental Example 12, and NBD-labeled CMP3013 monomer (NBD-CMP3013m) and NBD-labeled SS-31 (NBD-SS-31) were used to compare and analyze their cardiolipin binding ability.

[4] = Cardiolipin binding assay, NBD fluorescence with liposomes
Protocol: To further validate specificity of CMP3013 for cardiolipin-rich membranes identified in Example 9, two model systems mimicking the inner mitochondrial membrane were constructed using POPC (1-palmitoyl-2-oleoyl-sn-glycero-3-phosphocholine) and POPE (1-palmitoyl-2-oleoyl-sn-glycero-3-phosphoethanolamine), and cardiolipin binding assays were performed using an NBD-labeled CMP3013 monomer (NBD-CMP3013m), according to the method described in Experimental Example 12.
For the association experiments, 1 μM of NBD-labeled peptide dissolved in PBS was prepared in a black 96-well plate. Liposome (POPC:POPE=2:1 or POPC:POPE=2:1, containing 10% cardiolipin) was added to the peptide until the desired concentration was achieved. The mixture of NBD-peptide and liposome was mixed well through pipetting, and then fluorescence emission of the sample was monitored (λex=467 nm, λem=536 nm).
For the association experiments depending on cardiolipin ratio, 1 μM of NBD-labeled peptide or C6-NBD dissolved in PBS was prepared in a black 96-well plate. Liposome (POPC:POPE=2:1, containing 0 to 20% cardiolipin) was added to the peptide until the desired concentration (5 μM) was achieved. This mixture was mixed well through pipetting and fluorescence emission of the sample was monitored (λex=467 nm, λem=536 nm).
For dissociation experiments, 1 μM of NBD-labeled peptide dissolved in PBS was prepared in a black 96-well plate. Liposome (POPC:POPE=2:1 or POPC:POPE=2:1, containing 10% cardiolipin) was added to the peptide until the desired concentration (100 μM) was achieved. The mixture of NBD-peptide and liposome was mixed well through pipetting and fluorescence intensity of the mixture was measured (λex=467 nm, λem=536 nm). The unlabeled peptide (acetylated peptide) was then added to the mixture and mixed well through pipetting. Incubation in the dark was performed for 10 minutes, and then changes in fluorescence intensity were monitored. Peptide addition and fluorescence measurement were repeated until the concentration of acetylated peptide reached 40 μM.

[5] = test system: HeLa cells; conditions: observed for 4 hours
[6] = test system: HeLa cells; conditions: EC50 concentration 3 hours, 0.5 mM H2O2
Protocol: Subsequently, after treatment with 0.5 mM of H2O2, the fluorescence was detected and imaged by confocal microscopy. The fluorescence intensity of the cells was calculated with an image analysis program (ZEN blue).
Then, the cells were stained with 2′,7′-dichlorofluorescin diacetate (H2DCFDA; Sigma, 287810, USA; 25 μM, 30 min) and washed twice with PBS. The cells were treated with 500 μM H2O2 in HBSS and incubated for an additional 10 minutes. DCF signal of the cells was detected by confocal microscope and an image thereof was taken. Green signal intensity of each image was calculated using ZEN blue software.

[7] = test system: HeLa cells; assay: Co-localization with endosome, lysosome and cardiolipin (NAO) markers; type: cell-based; conditions: HeLa cells expressing CellLight early endosomes-GFP, 100 nM 3 hours
Protocol: Next, to investigate whether mitochondrial damage affects the amount of peptide present in lysosomes, cardiolipin-specific targeting was investigated using NAO in the presence or absence of CCCP.
For microscopic observation, HeLa cells were cultured in glass-bottom dishes (SPL, 200350, Korea). The cells were then treated with peptides for 3 hours and stained with MitoTracker™ (Thermo Fisher Scientific, A1372, USA; 100 nM, 1 hr), nonyl acridine orange (NAO; Thermo Fisher Scientific, A1372; 100 nM, 1 hr), Hoechst 33342 ([…], 20 min), CellLight™ early endosomes-GFP (Thermo Fisher Scientific, C10586; […], 16 hr), and/or LysoTracker™ (Thermo Fisher Scientific, L7525; 50 nM, 30 min). The cells were then rinsed with PBS and HBSS was added thereto. Images of the stained cells were obtained using a microscope (Zeiss LSM 880 and ELYRA PS.1). To generate ultra-high resolution images, a structured illumination process was performed with ZEN Black software. Pearson r values were calculated by using ImageJ software.

[8] = test system: HeLa cells; conditions: HeLa cells pretreated 3 hours; H2O2, antimycin A, or CCCP
Protocol: (§1) 2×10^4 HeLa cells were seeded in a 96-well plate 24 hours before the experiment. The cells were then stained with MitoSOX™ (Thermo Fisher Scientific, M36008; 5 μM, 10 min) or tetramethylrhodamine ethyl ester (TMRE; Sigma, 87917; 600 nM, 15 min). The cells were washed with PBS, and HBSS was added thereto. Fluorescence signal of the cells was measured with a microplate reader (TECAN) at 37° C. (MitoSox, Ex/Em=510/580 nm; TMRE, Ex/Em=525/575 nm).

[9] = test system: HeLa cells; assay: Co-localization with Drp1-eGFP; type: cell-based; conditions: HeLa cells transfected with Drp1-eGFP
Protocol: Wild-type Drp1 cDNA (kindly provided by Dr. Sunyong Chung, Ajou University School of Medicine) was amplified by polymerase chain reaction and inserted into the N-terminus of the eGFP gene in the pcDNA3.1-plasmid. Transfection of the plasmid was performed using Lipofectamine™ 3000 (Thermo Fisher Scientific, L3000001) according to the manufacturer's instructions.

[10] = test system: HeLa cells; conditions: 10 or 30 nM 3 hours, then H2O2 for 1 hour
Protocol: The membrane potential of mitochondria was measured according to the method described in Experimental Example 7.
as §1

[11] = test system: HeLa cells; assay: ATP levels in damaged cells pretreated with peptide; type: cell-based; conditions: HeLa cells pretreated 3 hours; H2O2, antimycin A, or CCCP
Protocol: The relative ATP levels of cells were compared by fluorescence intensity according to the method described in Experimental Example 8, and mitochondrial damage was induced by treatment with two different mitochondrial damaging agents (1 μM of antimycin A or 1 mM of H2O2).
Cellular ATP levels were assessed using an ATP detection kit (Abcam, ab113849, USA) according to the manufacturer's instructions. Fluorescence luminescence was measured with a microplate reader (Promega, Glomax 96 microplate luminometer, USA).

[12] = test system: HeLa cells; assay: Preferential binding to CCCP-damaged mitochondria, confocal microscopy; type: cell-based; conditions: 100 nM 3 hours, 20 μM CCCP
Protocol: To damage mitochondria, treatment with carbonyl cyanide m-chlorophenyl hydrazone (CCCP) at a concentration of 20 μM was performed for 30 minutes.
For microscopic observation, HeLa cells were cultured in glass-bottom dishes (SPL, 200350, Korea). The cells were then treated with peptides for 3 hours and stained with MitoTracker™ (Thermo Fisher Scientific, A1372, USA; 100 nM, 1 hr), nonyl acridine orange (NAO; Thermo Fisher Scientific, A1372; 100 nM, 1 hr), Hoechst 33342 (1 g/mL, 20 min), CellLight™ early endosomes-GFP (Thermo Fisher Scientific, C10586; 2 L/10,000 cells, 16 hr), and/or LysoTracker™ (Thermo Fisher Scientific, L7525; 50 nM, 30 min). The cells were then rinsed with PBS and HBSS was added thereto. Images of the stained cells were obtained using a microscope (Zeiss LSM 880 and ELYRA PS.1). To generate ultra-high resolution images, a structured illumination process was performed with ZEN Black software. Pearson r values were calculated by using ImageJ software.

For `CC(=O)N[C@@H](CC1CCCCC1)C(=O)N[C@H]1CSSC[C@@H](C(=O)N[C@@H](CCCNC(=N)N)C(N)=O)NC(=O)[C@H](CC(C)C)NC(=O)[C@H](CCCNC(=N)N)NC(=O)[C@H](CCCNC(=N)N)NC(=O)[C@H](CC2CCCCC2)NC(=O)[C@H](CC2CCCCC2)NC(=O)[C@H](CCCNC(=N)N)NC(=O)[C@@H](NC(=O)[C@H](CC2CCCCC2)NC(C)=O)CSSC[C@@H](C(=O)N[C@@H](CCCNC(=N)N)C(N)=O)NC(=O)[C@H](CC(C)C)NC(=O)[C@H](CCCNC(=N)N)NC(=O)[C@H](CCCNC(=N)N)NC(=O)[C@H](CC2CCCCC2)NC(=O)[C@H](CC2CCCCC2)NC(=O)[C@H](CCCNC(=N)N)NC1=O` [CMP3011] (HELM PEPTIDE1{[ac].[Cha].C.R.[Cha].[Cha].R.R.L.C.R.[am]}|PEPTIDE2{[ac].[Cha].C.R.[Cha].[Cha].R.R.L.C.R.[am]}$PEPTIDE1,PEPTIDE2,3:R3-10:R3|PEPTIDE1,PEPTIDE2,10:R3-3:R3$$$V2.0), the relative cytotoxicity [1] was “relatively highest cytotoxicity”.
In the case of “AcNH-RCRLLRRLRLCR-C(O)NH2 [LR10, peptide included in the L1L, L4L, L5L, and L8L sub-libraries, additional comparison group]”, the “improvement in cell penetration rate as compared with SS-31” value [2] is reported as “approximately 100 fold” and the “level of EC50 value (cell-penetrating ability)” value [2] is reported as “nanomolar level of EC50 value”.
In the case of “X(dR)XKX(dR)XK [MPP1a, reference compound]”, the “level of EC50 value (cell-penetrating ability)” value [2] is reported as “micromolar level of EC50 value”.
For “XCRLXRRXCR (Ac-[Cha]CRL[Cha]RR[Cha]CR-NH2; cysteine pairing not given here) [CMP3013m, acetyl-capped monomeric peptide, X = Cha]”, the “dissociation from the cardiolipin-containing membrane” value [3] was “did not dissociate from the cardiolipin-containing membrane”, the “greater response unit (RU) for membrane containing 10% cardiolipin versus POPC/POPE membrane alone” value ([3]; 1 μM peptide) was “approximately 50%” and the “binding to pathogenically altered membrane (5 to 10% cardiolipin, 10% DLCL)” value ([4]; POPC:POPE (2:1) liposomes) was “can bind to a cardiolipin-damaged membrane”. For the same compound, the “slower dissociation from CL-containing membrane than from cardiolipin-free membrane” value ([4]; competition assay with unlabeled peptide) was “approximately 10 fold” and the “binding capacity for liposome membranes, CMP3013m versus SS-31” value ([4]; liposomes with cardiolipin or di-lysocardiolipin) was “better binding capacity for all types of membranes”.
In the case of “NBD-NH-XCRLXRRXCR-C(O)NH2 [NBD-CMP3013m]”, the “faster binding to 10% CL liposome versus POPC/POPE liposome alone” value ([4]; 1 μM NBD-labeled peptide) is reported as “approximately 10 fold” and the “greater final fluorescence intensity with 10% CL liposome versus POPC/POPE liposome alone” value ([4]; 1 μM NBD-labeled peptide) is reported as 2 fold.
With `CC(=O)N[C@@H](CC1CCCCC1)C(=O)N[C@H]1CSSC[C@@H](C(=O)N[C@@H](CCCNC(=N)N)C(N)=O)NC(=O)[C@H](CC2CCCCC2)NC(=O)[C@H](CCCNC(=N)N)NC(=O)[C@H](CCCNC(=N)N)NC(=O)[C@H](CC2CCCCC2)NC(=O)[C@H](CC(C)C)NC(=O)[C@H](CCCNC(=N)N)NC(=O)[C@@H](NC(=O)[C@H](CC2CCCCC2)NC(=O)c2ccc3c(c2)C(=O)OC32c3ccc(N(C)C)cc3Oc3cc(N(C)C)ccc32)CSSC[C@@H](C(=O)N[C@@H](CCCNC(=N)N)C(N)=O)NC(=O)[C@H](CC2CCCCC2)NC(=O)[C@H](CCCNC(=N)N)NC(=O)[C@H](CCCNC(=N)N)NC(=O)[C@H](CC2CCCCC2)NC(=O)[C@H](CC(C)C)NC(=O)[C@H](CCCNC(=N)N)NC1=O` [FL-CMP3013] (HELM PEPTIDE1{[ac].[Cha].C.R.L.[Cha].R.R.[Cha].C.R.[am]}|PEPTIDE2{[CN(C)c1ccc2c(c1)Oc1cc(N(C)C)ccc1C21OC(=O)c2cc(C(=O)[*:2])ccc21].[Cha].C.R.L.[Cha].R.R.[Cha].C.R.[am]}$PEPTIDE1,PEPTIDE2,3:R3-10:R3|PEPTIDE1,PEPTIDE2,10:R3-3:R3$$$V2.0) the “cell survival after CCCP” value [5] was “survived even after 4 hours”, the “ROS production inhibiting ability” value [6] was “greatest inhibition of ROS production” and the “co-localization with endosomal marker” value [7] was “less than 20%”. For the same compound, the ROS production [8] was “inhibited ROS production”, the “co-localization with Drp1” value [9] was “co-localize perfectly with Drp1” and the mitochondrial membrane potential [10] was “increased by FL-CMP3013 treatment in a concentration-dependent manner”. The ATP production [11] was “resumed ATP production” and the “targeting of damaged mitochondria” value [12] was “co-localized more with donut-shaped or bulge-shaped mitochondria”.
